Molecules are shown by their SMILES. Bounds are passed on as bounds.

The melting point is the temperature, or range, at which the solid turns liquid.

`CC(=O)O[C@H]1CC[C@H]2[C@@H]3CCc4cc(O)ccc4[C@H]3[C@@H](CCCCCCCCCS(=O)(=O)CCCC(F)(F)C(F)(F)F)C[C@]12C` gave a melting point of 130 °C.
As for `Cc1cccc(N(C)C(=O)c2cc(=O)n(C)c3ccc(C(O)(c4ccc(Cl)cc4)c4cncn4C)cc23)c1` (stereo not drawn), the figure is 185 °C; as for `CCc1ccc(Nc2nc3cc(NC(=O)c4ccc(OC)c(OC)c4)ccc3o2)cc1`, over 250 °C; as for `CC1CC2CC(C)(CN2)C1(C)C(=O)C=CCO` (stereo not drawn), 72 to 75 °C.
`CC(C)(C)OC(=O)Nc1ccc(OC(=O)C2CCCCC2)c(C(=O)O)c1` returned a melting point of 68 to 74 °C.
`N#CCC(=O)Nc1ccc(N)c([N+](=O)[O-])c1` registered a melting point of 218 to 221 °C.
Then `CC(=O)Oc1cc2nc[nH]c(=O)c2cc1OC(C)=O`, with 235 to 237 °C; and `Cn1nc(C(F)(F)F)cc1Oc1cccc(-c2nc(C(F)(F)C(F)(F)F)no2)n1`, with 109 to 110 °C.
Compound `COC(=O)[C@@H]1[C@@H](Cc2ccccc2)C[C@@H]2CC[C@H]1N2C` had a melting point of 79 to 80 °C.
Turning to `O=c1nc(-c2cccc(Cl)c2)c2cc(Br)ccc2[nH]1`, the melting point is 281 °C.
Compound `CCOCc1cc(OC)c(-c2ccc(C[C@H](NC(=O)c3c(Cl)cccc3Cl)C(=O)O)cc2)c(OC)c1` yielded a melting point of 196 to 198 °C.
Compound `Cc1cc(C=Cc2ccccc2OCC2CO2)on1` (stereo not drawn) displayed a melting point of 99 to 100 °C.
For `CCCn1c(=O)c2[nH]c(-c3ccc(OCC(=O)O)cc3)nc2n(CCC)c1=O`, the melting point was 214 to 216 °C.
Compound `COc1ccc(-c2c(Cl)c(CN3C(=O)CSC3=O)nc3sc4c(c23)CC[C@H](C(N)=O)C4)cc1` had a melting point of 145 to 148 °C.
The compound `N#CCc1cc(Br)ccc1Sc1ccccc1` came in with a melting point of 118 to 120 °C.
Then `CC(C)(C)c1nnc(NN)s1`, with 111 to 112 °C; and `Cn1c(C(=O)OCc2ccccc2)c(-c2ccc(F)cc2)c2cccnc2c1=O`, with 217 to 218 °C; and `O=C(CCC(O)c1cccs1)Nc1cccc2cc(-c3nccs3)[nH]c12` (stereo not drawn), with 155 to 157 °C.
In turn, `COc1cc(CC(C#N)=CNc2ccccc2)cc(OC)c1NC(C)=O` yielded a melting point of 165 to 167 °C.
For `N[C@@H](Cc1ccccc1C(F)(F)F)[C@H](O)c1ccc(F)cc1` (racemic), the melting point is 57 to 58 °C.
Take `CCCCc1nc2c(N)nc3ccccc3c2n1CCCC(=NOC)c1ccccc1`: the melting point lay within 198 to 200 °C.
As for `CC(=O)Nc1nnnn1CC(I)=C(I)I`, the figure is 178 to 185 °C; as for `OC(CN1CCN(c2ccncc2)CC1)c1ccc2nonc2c1` (stereo not drawn), 159 to 162 °C; as for `Cc1ccc(C(=O)c2c(-c3ccc(OCC(O)CNC(C)C)cc3)oc3ccccc23)cc1` (stereo not drawn), 65 to 75 °C.
Then `Nc1ccccc1CC1NCCc2ccccc21` (stereo not drawn), with 69 to 71 °C; and `CC(C)(C)c1ccc(C(=O)n2c3cc(O)c(O)cc3c3ccc(O)c(O)c32)cc1`, with 234 to 236 °C; and `COc1ccc(C2=C(c3ccc(S(C)(=O)=O)cc3)CCC2)cc1F`, with 128 to 129 °C.
Then `O=Cc1ccc(OC2CCCC2)c(O)c1`, with 87 to 89 °C.
In turn, `COc1cc(C(O)CN2CCN(C(c3ccccc3)c3ccccc3)CC2)cc(OC)c1OC` (stereo not drawn) gave a melting point of 173 °C.
Then `CCOC(=O)CN(CC(=O)OCC)c1ccc(C=O)c(O)c1`, with 190 °C.
As for `CC1(C)CN(c2ncc(C(=O)N(CC3CC3)c3cc(C(F)(F)F)ccc3F)c(N)n2)C(=O)N1`, the figure is 188 to 189 °C; as for `CCN(CC)C(=O)COC(=O)c1ccc(N)cc1`, 135 to 136 °C; as for `O=C(Nc1nnc(CC2CC2)o1)C1c2ccccc2Oc2ccccc21`, 140 to 141 °C.
As for `CCCCOc1ccc2cc(C(C)NC(N)=O)ccc2c1` (stereo not drawn), the figure is 135 to 137 °C; as for `CCCSC1(SCCC)CCC2C3CCC4=CC(=O)C=CC4(C)C3(F)C(O)CC21C` (stereo not drawn), 235 to 237 °C.
As to `CC(C)NC(=O)c1nc(-c2ccccc2)c(-c2ccc(=O)n(C)n2)s1`, the melting point came to 154 °C.
As for `COc1ccc(/C=C/C2=NS(=O)(=O)c3ccccc3N2)cc1OC`, the figure is 276 to 279 °C; as for `Cc1cnc(CCNC(=O)c2ccccc2NC(=O)c2cccc(C(F)(F)F)c2)[nH]1`, 168 to 172 °C.
`COc1cccc(CC(=O)N[C@H]2N=C(c3ccccc3)c3ccccc3N(C)C2=O)c1` registered a melting point of 198 to 199 °C.
As for `Cc1c(NC(=O)c2ccc(-c3ccccc3Cl)cc2)ccc2cc(CN3CCCC3)cnc12`, the figure is 128 to 129 °C; as for `COC(=O)c1cc2c(S(=O)(=O)Cl)cc(Cl)c(Cl)c2o1`, 199 to 200 °C.
For the compound `O=C(Nc1cccc(C(F)(F)F)c1)c1cccnc1Cl`, the melting point lay in the range of 117 to 118 °C.
Compound `CCc1nc(/C=C/c2cn(-c3ccccc3)nc2OCc2ccc(OCc3nc(-c4cccc(CO)c4)oc3C)c(OC)c2)cs1` gave a melting point of 130 to 132 °C.
As for `CCOC(=O)C1=NOC2(CCC(C(C)(C)CC)CC2)C1` (stereo not drawn), the figure is 82 to 87 °C; as for `Cc1nccn1C(C)CC(O)(c1ccccc1)c1ccccc1` (stereo not drawn), 168 to 169 °C.
Then `CCOC(=O)N1CCOC(CC23CC(c4ccccc42)c2ccccc23)C1` (stereo not drawn), with 143 to 144 °C; and `CC(C)(C)OC(=O)N1CCN(c2[nH]nc(-c3ccc(Cl)cc3)c2-c2ccncc2)CC1`, with 204 to 205 °C.
Then `CCn1c(=O)c2[nH]c(/C=C/c3ccc4c(c3)OCCO4)nc2n(CC)c1=O`, with over 300 °C; and `O=C(Oc1ccccc1)c1ccc2[nH]nnc2c1`, with 156 to 160 °C; and `Cc1cc(-n2ccnc2)cc2ccc(=O)[nH]c12`, with 259 to 262 °C.
`O=C1c2ccc(Cl)cc2C(=O)N1c1ccc([N+](=O)[O-])cc1CI`: the melting point fell in the range of 183 to 187 °C.
Then `COc1cc(OC(=O)c2cccnc2)c2c(=O)c(OC)c(-c3ccc(OC(=O)c4cccnc4)c(OC)c3)oc2c1`, with 212 to 214 °C.
The compound `COc1ccc(I)c(OCC(O)CNCCc2ccc(OC)c(OC)c2)c1` (stereo not drawn) showed a melting point of 83 to 88 °C.
`CN(C)S(=O)(=O)n1cc(I)cn1` had a melting point of 32 °C.
As for `Cc1ccc2c3c(ccc2n1)OC[C@H](CN1CCN(c2cccc(Cl)c2)CC1)O3`, the figure is 110 to 112 °C; as for `C[C@H](NC(=O)OCC1c2ccccc2-c2ccccc21)C(=O)N1[C@H](C)C(=O)OC[C@@H]1c1ccccc1`, 87 to 88 °C.
As for `NC(=O)c1cn(C(CO)CCc2cccc3ccccc23)cn1` (stereo not drawn), the melting point fell in the range of 138 to 140 °C.
Turning to `CC12CC(NC(=O)OCC(Cl)(Cl)Cl)C3C(CCC4CC(O)CCC43C)C1CCC2C(=O)O` (stereo not drawn), the melting point is 212 to 220 °C.
`Cc1ccc(S(=O)(=O)N(CCBr)c2ccc(Cl)cc2[N+](=O)[O-])cc1` showed a melting point of 70 to 72 °C.
As for `NC(=O)NC1CCN2CCc3ccccc3C2C1` (stereo not drawn), the melting point stood at 235 °C.
Then `Cc1nc(C(=O)NC23CC4CC(CC(O)(C4)C2)C3)c(C)n1-c1ccccc1`, with 215 to 220 °C; and `Cc1nc(-c2ccc(C#N)cc2)oc1C(=O)NCCCCN1CCC(c2ccc3c(c2OCCO)CCCC3)CC1`, with 109 to 111 °C.
As for `Cc1ncc(-c2ccccc2)c(-c2ccc3c(c2)NC(=O)CO3)n1`, the figure is 229 °C.
Regarding `Cc1cn(Nc2ccncc2)c2ccc(OCc3ccccc3)cc12`, the melting point was 168 to 170 °C.
`CCOC(=O)c1cc(=O)c(Oc2ccc(OC)cc2)co1`: the melting point is 106 to 107 °C.
Regarding `CC[C@@H](C)NCc1cnc2c(C)c(NC(=O)c3ccc(OC[C@@H]4CCCO4)cc3)ccc2c1`, the melting point fell in the range of 118 to 119 °C.
As for `CCCn1c(=O)c2[nH]c(C3CCCS3)nc2n(CCC)c1=O` (stereo not drawn), the figure is 224 to 226 °C.
Then `CCCS(=O)(=O)NCC(O)(Cn1cncn1)c1ccc(Cl)cc1Cl` (stereo not drawn), with 128 to 129 °C; and `COc1cc(NC(=O)N(O)C(C)C)cc(OC)c1OC`, with 140 to 141 °C.
Consider `CCc1nc2c(cnn2CC)c(NC2CCOCC2)c1CNC(=O)c1cccc(C(=O)NCc2ccc(C)c(-c3cccc(CN4CCNCC4)c3)c2)c1`, for which the melting point lay in the range of 135 to 138 °C.
As for `O=C(CCc1cnoc1-c1ccccc1)Nc1ccc2ncccc2c1`, the figure is 170 to 171 °C; as for `N#CCCn1ccc(NC(=S)NCC(F)(F)F)n1`, 164 to 165 °C.
Then `CS(=O)(=O)Oc1ccc2c(c1)[nH]c(=O)c1c3ccc(OS(C)(=O)=O)cc3oc21`, with over 300 °C; and `O=[PH](O)Cc1ccc(P(c2ccccc2)c2ccccc2)cc1`, with 40 °C; and `CCC1(CCC(=O)OC)CCCN2CCc3c([nH]c4ccccc34)C21` (stereo not drawn), with 110 °C.
For the compound `Clc1ccc2c(c1)C(c1ccccc1)=NCc1nnc(C(Cl)Cl)n1-2`, the melting point was in the range of 193 to 196 °C.
Then `Cc1ccc(-c2cc(C(F)(F)F)nn2-c2ccc(S(=O)(=O)NO)cc2)cc1`, with 203 °C; and `O=C(Cc1cccc([N+](=O)[O-])c1)c1c(O)c2cccnc2n(-c2ccccc2)c1=O`, with 157 to 161 °C; and `O=C(NCC1CCCC1)NC1CCN(CC23CC(c4ccccc42)c2ccccc23)CC1`, with 197 to 198 °C.
Then `O=C(Cl)CCCCCCCBr`, with 110 to 112 °C; and `CCCCC(COc1ccc(-c2cccc(CC#N)c2)cc1)N(O)C=O` (stereo not drawn), with 99 to 101 °C.
Then `COc1ccc(Sc2c(O)c3c(Cl)cc(Cl)cc3[nH]c2=O)cc1`, with 280 to 282 °C.
`O=C(O)C(Cc1ccccc1)C(=O)NOCc1ccccc1` (stereo not drawn) showed a melting point of 147 °C.
For `CSc1ccc(F)cc1C(=O)Cn1cccc1`, the melting point is 133 to 134 °C.
Turning to `Cn1c(=O)c2c(ncn2CCCCCC#N)n(C)c1=O`, the melting point was 86 to 88 °C.
Then `CC(=CC(=O)O)CCCCCCCCCCCCC(=O)O`, with 77 °C; and `CN(C)c1ccc(C2(c3ccc(N(C)C)cc3Cl)OC(=O)c3cc(N(C)C)ccc32)cc1` (stereo not drawn), with 233 to 234 °C; and `CNc1ccc(Cl)c(C(=O)Nc2cccc3c4c(oc23)CCCC4)c1Cl`, with 160 to 162 °C.

Source of the values: a melting point compilation (Tetko et al.; mined from patent text by program, amines drawn as free bases though some values may be those of a salt).
